Experimental data as given in ChEMBL document CHEMBL1201862, “PubChem BioAssay data set” (2004).
Active and inactive are the calls of the source.

Columns and labels:
Coagulation factor XII = biological target: T1, Coagulation factor XII (Homo sapiens, UniProt P00748); assay: Factor XIIa Dose Response Confirmation from Single Well HTS. [Related pubchem assays (depositor defined):AID701]; type: functional
T1 sequence (P00748 whole entry): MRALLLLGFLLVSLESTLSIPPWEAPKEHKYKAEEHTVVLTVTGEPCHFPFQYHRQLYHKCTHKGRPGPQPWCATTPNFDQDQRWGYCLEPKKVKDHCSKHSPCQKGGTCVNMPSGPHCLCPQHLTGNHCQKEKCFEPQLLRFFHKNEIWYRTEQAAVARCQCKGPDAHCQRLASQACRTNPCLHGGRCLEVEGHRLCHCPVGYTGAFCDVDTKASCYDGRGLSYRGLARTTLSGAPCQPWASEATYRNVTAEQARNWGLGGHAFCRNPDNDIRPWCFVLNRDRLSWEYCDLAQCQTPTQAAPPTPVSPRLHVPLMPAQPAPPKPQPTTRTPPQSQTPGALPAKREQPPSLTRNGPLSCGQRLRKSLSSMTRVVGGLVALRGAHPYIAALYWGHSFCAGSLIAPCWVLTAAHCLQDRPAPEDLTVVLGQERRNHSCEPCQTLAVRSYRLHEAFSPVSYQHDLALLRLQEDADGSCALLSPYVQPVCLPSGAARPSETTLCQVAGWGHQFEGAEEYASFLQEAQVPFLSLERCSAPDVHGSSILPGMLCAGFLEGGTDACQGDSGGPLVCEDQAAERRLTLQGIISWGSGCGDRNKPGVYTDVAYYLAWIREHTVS

[1] = biological target: T2, Intestinal-type alkaline phosphatase (Homo sapiens, UniProt P09923); assay: activation of human intestinal alkaline phosphatase – biochemical, luminescent, uHTS hits, set 2, dose response (AID 488817); type: functional;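 also: potency of activators that raise enzyme activity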
[2] = biological target: Intestinal-type alkaline phosphatase (Mus musculus, UniProt P24822); assay: PubChem AID 488874; type: functional
[3] = biological target: T2, Intestinal-type alkaline phosphatase; assay: human intestinal alkaline phosphatase activators, dose response, biochemical, luminescence, uHTS hits (AID 463120); type: functional
[4] = biological target: T3, Alkaline phosphatase, tissue-nonspecific isozyme (Homo sapiens, UniProt P05186); assay: activation of tissue-nonspecific alkaline phosphatase – biochemical, TNAP isozyme, human IAP uHTS hits, selectivity assay for human IAP activator project, dose response (AID 488886); type: functional;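 also: potency of compounds raising TNAP activity as a selectivity check on IAP activators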
T3 sequence (P05186 whole entry): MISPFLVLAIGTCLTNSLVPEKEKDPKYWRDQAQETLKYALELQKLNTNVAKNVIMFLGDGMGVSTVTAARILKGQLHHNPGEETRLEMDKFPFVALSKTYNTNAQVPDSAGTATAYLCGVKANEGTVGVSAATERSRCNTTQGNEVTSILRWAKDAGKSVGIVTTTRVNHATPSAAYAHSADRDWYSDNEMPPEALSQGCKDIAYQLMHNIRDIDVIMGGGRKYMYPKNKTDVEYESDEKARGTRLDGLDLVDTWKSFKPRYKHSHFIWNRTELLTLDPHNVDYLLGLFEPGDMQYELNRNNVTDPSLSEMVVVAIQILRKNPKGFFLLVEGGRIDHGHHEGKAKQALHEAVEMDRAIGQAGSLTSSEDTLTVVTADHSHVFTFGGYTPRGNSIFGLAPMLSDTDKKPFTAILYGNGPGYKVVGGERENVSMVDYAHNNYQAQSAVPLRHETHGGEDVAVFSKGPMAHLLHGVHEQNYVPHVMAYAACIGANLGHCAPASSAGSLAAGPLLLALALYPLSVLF

[5] = biological target: T4, RNA-binding protein pos-1 (Caenorhabditis elegans, UniProt G5EF15); assay: disruptors of C. elegans POS-1 RNA interaction – biochemical, fluorescence polarization, dose response (AID 1964);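 also: purified POS-1 fused to maltose binding protein made in E. coli; potency of compounds blocking POS-1 binding to fluorescent RNA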
T4 sequence (G5EF15 whole entry): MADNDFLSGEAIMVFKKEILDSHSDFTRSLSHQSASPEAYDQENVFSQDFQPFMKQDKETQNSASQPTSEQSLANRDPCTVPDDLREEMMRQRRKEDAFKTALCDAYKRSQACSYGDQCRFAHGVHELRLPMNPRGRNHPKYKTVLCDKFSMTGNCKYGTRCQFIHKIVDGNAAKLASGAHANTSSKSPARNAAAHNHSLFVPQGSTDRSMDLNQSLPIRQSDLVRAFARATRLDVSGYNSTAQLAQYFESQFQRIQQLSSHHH

Mu-type opioid receptor [6] = biological target: T5, Mu-type opioid receptor (Homo sapiens, UniProt P35372); assay: mu opioid receptor activators, image-based, SAR follow-up (AID 2352); type: functional
[7] = biological target: T6, Kappa-type opioid receptor (Homo sapiens, UniProt P41145); assay: kappa opioid receptor activation potency – imaging, image-based, SAR follow-up (AID 2359); type: functional
[8] = biological target: T6, Kappa-type opioid receptor; assay: SAR analysis of small molecule agonists of the kappa opioid receptor via a luminescent beta-arrestin assay. [Related pubchem assays (depositor defined):AID1777, AID1786, AID1966, AID2133, AID2136, AID2348, AID2352, AID2357, AID2359, AID2370, AID2420, AID2478, AID2491, AID2492, AID2493, AID2497, AID2498, AID2500, AID449737, AID488822, AID488842]; type: functional
Mu-type opioid receptor [9] = biological target: T5, Mu-type opioid receptor; assay: mu opioid receptor blockers – image-based, SAR follow-up (AID 2420); type: functional;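 also: compounds added before stimulation of receptor with agonist DAMGO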
[10] = biological target: T7, Delta-type opioid receptor (Homo sapiens, UniProt P41143); assay: delta opioid receptor blockers – image-based, SAR follow-up (AID 2357); type: functional
[11] = biological target: T7, Delta-type opioid receptor; assay: DOR agonists, SAR follow-up, image-based (AID 2370); type: functional
[12] = biological target: T6, Kappa-type opioid receptor; assay: kappa opioid receptor blockers, image-based, SAR follow-up (AID 2348); type: functional
[13] = biological target: T8, Tyrosine-protein phosphatase non-receptor type 7 (Homo sapiens, UniProt P35236); assay: inhibition of hematopoietic tyrosine phosphatase HePTP – biochemical, set 2, SAR follow-up (AID 449736); type: functional
T8 sequence (P35236 whole entry): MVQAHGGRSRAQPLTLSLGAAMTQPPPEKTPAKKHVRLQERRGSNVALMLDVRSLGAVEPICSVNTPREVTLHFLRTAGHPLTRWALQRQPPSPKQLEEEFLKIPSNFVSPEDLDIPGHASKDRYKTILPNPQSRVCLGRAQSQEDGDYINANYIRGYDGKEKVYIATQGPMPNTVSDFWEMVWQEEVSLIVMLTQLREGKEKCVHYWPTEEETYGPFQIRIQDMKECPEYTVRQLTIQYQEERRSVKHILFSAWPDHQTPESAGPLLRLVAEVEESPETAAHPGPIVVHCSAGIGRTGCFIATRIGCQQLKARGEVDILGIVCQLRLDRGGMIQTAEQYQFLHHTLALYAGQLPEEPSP

[14] = biological target: T3, Alkaline phosphatase, tissue-nonspecific isozyme; assay: potency against alkaline phosphatase TNAP – biochemical, luminescent, dose response, SAR follow-up (AID 1056)
[15] = biological target: Alkaline phosphatase, placental type (Homo sapiens, UniProt P05187); assay: human placental alkaline phosphatase inhibition – biochemical, luminescence, confirmation (AID 1512); type: functional
[16] = biological target: Glyceraldehyde-3-phosphate dehydrogenase (Homo sapiens, UniProt P04406)
X-box-binding protein 1 = X-box-binding protein 1 (Homo sapiens, UniProt P17861); type: functional, Cricetulus griseus;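 also: confirmatory dose-response counter-screen serving a CHOP assay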
[17] = biological target: DNA damage-inducible transcript 3 protein (Mus musculus, UniProt P35639); type: functional, Cricetulus griseus
Chain of DNA damage-inducible transcript 3 protein (P35639 whole entry): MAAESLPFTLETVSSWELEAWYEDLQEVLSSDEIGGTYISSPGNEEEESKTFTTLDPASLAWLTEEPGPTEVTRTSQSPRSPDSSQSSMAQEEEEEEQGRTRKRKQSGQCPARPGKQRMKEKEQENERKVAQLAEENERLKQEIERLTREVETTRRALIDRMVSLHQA

T6 sequence (P41145 whole entry): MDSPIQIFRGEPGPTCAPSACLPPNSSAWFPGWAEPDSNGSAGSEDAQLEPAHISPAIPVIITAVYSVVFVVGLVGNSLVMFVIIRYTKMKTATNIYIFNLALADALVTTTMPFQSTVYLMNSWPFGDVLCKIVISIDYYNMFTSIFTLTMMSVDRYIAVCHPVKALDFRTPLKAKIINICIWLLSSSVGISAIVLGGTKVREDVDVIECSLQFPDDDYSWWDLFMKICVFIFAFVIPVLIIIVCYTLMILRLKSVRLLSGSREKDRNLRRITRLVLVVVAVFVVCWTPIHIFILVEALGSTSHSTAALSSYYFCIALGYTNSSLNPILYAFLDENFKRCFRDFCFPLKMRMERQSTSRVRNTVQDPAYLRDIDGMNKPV
T5 sequence (P35372 whole entry): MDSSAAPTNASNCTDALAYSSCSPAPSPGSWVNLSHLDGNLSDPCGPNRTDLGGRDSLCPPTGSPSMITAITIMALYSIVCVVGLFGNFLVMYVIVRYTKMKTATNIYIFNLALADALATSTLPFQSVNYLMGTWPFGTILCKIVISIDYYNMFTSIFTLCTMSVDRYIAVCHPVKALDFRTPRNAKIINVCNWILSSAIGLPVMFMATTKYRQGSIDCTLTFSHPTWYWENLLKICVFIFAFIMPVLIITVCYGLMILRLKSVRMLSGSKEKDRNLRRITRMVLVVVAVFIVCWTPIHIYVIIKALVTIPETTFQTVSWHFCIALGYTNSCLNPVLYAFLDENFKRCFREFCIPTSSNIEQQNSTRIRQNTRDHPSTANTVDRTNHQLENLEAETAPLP
T2 sequence (P09923 whole entry): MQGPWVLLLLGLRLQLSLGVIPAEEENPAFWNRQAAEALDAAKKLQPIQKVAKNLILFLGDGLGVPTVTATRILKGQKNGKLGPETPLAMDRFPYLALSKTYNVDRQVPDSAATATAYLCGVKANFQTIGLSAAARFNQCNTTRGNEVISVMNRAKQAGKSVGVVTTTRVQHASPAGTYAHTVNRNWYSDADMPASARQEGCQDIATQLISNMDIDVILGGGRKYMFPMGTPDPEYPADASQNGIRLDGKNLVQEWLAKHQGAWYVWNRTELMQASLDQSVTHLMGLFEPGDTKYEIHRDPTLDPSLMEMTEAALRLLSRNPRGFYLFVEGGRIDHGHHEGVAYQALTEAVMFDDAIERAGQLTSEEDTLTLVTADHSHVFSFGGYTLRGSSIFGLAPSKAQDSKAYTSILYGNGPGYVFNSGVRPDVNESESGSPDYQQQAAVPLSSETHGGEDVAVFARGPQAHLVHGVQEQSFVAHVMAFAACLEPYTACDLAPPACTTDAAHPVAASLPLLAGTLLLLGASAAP
T7 sequence (P41143 whole entry): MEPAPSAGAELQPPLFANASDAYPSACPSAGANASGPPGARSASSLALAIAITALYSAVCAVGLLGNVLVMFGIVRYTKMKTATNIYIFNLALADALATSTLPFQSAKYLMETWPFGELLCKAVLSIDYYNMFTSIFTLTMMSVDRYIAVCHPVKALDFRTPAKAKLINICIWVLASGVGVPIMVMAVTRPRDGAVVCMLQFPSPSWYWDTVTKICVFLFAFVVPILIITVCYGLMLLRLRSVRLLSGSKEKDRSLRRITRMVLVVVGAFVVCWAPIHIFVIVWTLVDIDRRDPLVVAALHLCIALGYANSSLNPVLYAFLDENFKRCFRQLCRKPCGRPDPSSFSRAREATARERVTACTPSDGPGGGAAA
Chain of Alkaline phosphatase, placental type (P05187 whole entry): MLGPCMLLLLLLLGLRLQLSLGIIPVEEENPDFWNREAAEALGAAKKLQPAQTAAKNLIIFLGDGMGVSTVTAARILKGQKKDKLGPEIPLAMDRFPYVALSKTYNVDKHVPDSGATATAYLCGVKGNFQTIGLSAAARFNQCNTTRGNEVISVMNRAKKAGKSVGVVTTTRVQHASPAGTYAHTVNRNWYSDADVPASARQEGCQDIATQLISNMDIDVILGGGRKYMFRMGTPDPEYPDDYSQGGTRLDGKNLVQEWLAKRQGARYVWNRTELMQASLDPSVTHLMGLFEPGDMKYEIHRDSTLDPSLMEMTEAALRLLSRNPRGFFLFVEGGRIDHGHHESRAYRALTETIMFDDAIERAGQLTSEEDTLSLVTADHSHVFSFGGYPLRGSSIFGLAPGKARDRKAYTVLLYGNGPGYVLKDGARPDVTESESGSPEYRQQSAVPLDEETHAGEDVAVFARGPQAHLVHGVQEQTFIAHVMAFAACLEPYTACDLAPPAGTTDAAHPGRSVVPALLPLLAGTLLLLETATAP
Chain of X-box-binding protein 1 (P17861 whole entry): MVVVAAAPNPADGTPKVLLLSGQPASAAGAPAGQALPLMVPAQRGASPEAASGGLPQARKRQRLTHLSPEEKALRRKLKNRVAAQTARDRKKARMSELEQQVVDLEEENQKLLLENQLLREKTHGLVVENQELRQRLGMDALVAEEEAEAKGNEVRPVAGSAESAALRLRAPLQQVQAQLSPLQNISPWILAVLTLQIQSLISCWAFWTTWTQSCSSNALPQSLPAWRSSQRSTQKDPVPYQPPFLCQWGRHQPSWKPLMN
Chain of Glyceraldehyde-3-phosphate dehydrogenase (P04406 whole entry): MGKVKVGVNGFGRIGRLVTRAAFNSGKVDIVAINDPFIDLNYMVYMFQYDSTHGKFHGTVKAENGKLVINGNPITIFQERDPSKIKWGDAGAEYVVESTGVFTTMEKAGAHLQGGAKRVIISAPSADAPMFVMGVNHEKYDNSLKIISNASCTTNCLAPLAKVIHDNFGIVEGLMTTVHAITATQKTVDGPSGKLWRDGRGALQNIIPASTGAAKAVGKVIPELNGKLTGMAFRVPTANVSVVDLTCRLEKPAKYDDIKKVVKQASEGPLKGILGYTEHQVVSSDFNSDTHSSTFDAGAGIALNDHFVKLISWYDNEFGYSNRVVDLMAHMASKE
Chain of Intestinal-type alkaline phosphatase (Mus musculus, UniProt P24822) (P24822 whole entry): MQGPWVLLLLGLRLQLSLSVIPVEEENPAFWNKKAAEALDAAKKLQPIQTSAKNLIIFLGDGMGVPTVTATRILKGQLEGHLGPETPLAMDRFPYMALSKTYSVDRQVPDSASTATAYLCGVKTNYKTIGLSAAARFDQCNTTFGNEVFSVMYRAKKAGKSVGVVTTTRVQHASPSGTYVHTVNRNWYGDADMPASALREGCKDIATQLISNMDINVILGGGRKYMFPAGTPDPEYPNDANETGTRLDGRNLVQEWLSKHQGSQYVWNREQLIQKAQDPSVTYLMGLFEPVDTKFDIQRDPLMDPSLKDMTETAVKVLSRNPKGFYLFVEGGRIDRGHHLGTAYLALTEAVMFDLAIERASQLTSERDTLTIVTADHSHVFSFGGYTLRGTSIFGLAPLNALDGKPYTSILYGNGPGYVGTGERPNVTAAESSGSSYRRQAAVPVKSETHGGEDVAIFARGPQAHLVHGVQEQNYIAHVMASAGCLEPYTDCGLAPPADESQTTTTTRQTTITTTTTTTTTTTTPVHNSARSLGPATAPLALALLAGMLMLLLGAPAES

O=C(C1CCC1)N(CCc1ccccc1)Cc1nc(O)c2ccccc2n1
IC50 (Coagulation factor XII): > 50 µM (inactive)

Cc1n[nH]c(S/C(=C/c2ccc(-c3ccc(Cl)cc3)o2)C(=O)O)n1
EC50 [1]: 12.1 µM (active)
IC50 [2]: 54.3 µM (active)
EC50 [3]: 12.8 µM (active)
EC50 [4]: > 100 µM (inactive)
EC50 [5]: 25.4 µM (active)

COc1ccc(C)cc1NC(=O)CSc1nnc(-c2ccccn2)n1Cc1ccco1
EC50 (Mu-type opioid receptor [6]): > 32 µM (inactive)
EC50 [7]: > 32 µM (inactive)
EC50 [8]: > 10 µM (inactive)
IC50 (Mu-type opioid receptor [9]): > 32 µM (inactive)
IC50 [10]: > 32 µM (inactive)
EC50 [11]: > 32 µM (inactive)
IC50 [12]: > 32 µM (inactive)

NS(=O)(=O)c1ccc(NC(=O)N2CCN(Cc3ccccc3)CC2)cc1
IC50 [13]: > 100 µM (inactive)

CC(C)Cc1nc(N)nn1-c1ccccc1
IC50 [14]: > 100 µM (inactive)
IC50 [15]: > 100 µM (inactive)
IC50 [16]: > 100 µM (not active)

O=C(CSC1c2ccccc2-c2ccccc21)N/N=C/c1ccccc1
Absolute IC50 (XBP1) (X-box-binding protein 1): 10 µM
Absolute IC50 (CHOP) [17]: 10 µM
